We go through 28 compounds from US9365540B2, “Benzimidazole derivatives as MCH receptor antagonists” (Takeda Pharmaceutical Company Limited, priority 2012, dated 2016).

In general, inhibition refers to the change of the read-out against control, counted positive when it falls.

T1 sequence (Q99705 whole entry): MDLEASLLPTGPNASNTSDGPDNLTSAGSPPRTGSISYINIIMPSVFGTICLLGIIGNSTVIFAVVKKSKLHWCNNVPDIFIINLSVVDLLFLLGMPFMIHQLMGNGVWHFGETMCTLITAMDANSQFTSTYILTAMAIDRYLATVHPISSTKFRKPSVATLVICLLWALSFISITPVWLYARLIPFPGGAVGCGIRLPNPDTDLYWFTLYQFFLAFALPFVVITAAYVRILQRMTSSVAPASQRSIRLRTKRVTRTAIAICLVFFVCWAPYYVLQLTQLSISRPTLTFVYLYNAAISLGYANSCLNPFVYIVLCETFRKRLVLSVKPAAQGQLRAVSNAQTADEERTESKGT

One experiment has as its target T1, human MCH receptor 1 (MCHR1) (Homo sapiens, UniProt Q99705).
T1 construct: expressed in transfected cells; host or cells: CHO cell clone 57 (membrane fraction)
The experiment is described as follows: human MCH receptor 1 (MCHR1) competitive binding assay with [125I]-MCH(4-19). The settings on record: test compound 0.1 μM, human MCHR1-expressing CHO cell membrane fraction, 0.1 µM. The protocol: Determination of human MCH receptor 1 (MCHR1) competitive inhibitory activity of test compound using binding assay
1. Preparation of Membrane Fraction
Using human MCHR1 (=SLC-1 receptor)-expressing CHO cell clone 57 described in WO01/82925, MCHR1-expressing CHO cell membrane fractions were prepared by the following method.
In phosphate buffered saline (pH 7.4) supplemented with 5 mM EDTA (ethylenediaminetetraacetic acid) were respectively suspended human MCHR1-expressing CHO cells (1×10^8 cells) and centrifuged. Homogenate buffer (10 mL, 10 mM NaHCO3, 5 mM EDTA, pH 7.5, 0.5 mM PMSF (phenylmethylsulfonyl fluoride), 20 mg/L leupeptin, 4 mg/L E-64, 1 mg/L pepstatin A) was added to the pellets of the cells and, using Polytron Homogenizer, the mixture was homogenated. The supernatant obtained after centrifugation at 400×g for 10 min was further centrifuged at 100,000×g for 1 hr to give precipitate of the membrane fraction. The precipitate were suspended in 2 mL of assay buffer [20 mM Tris-HCl (pH 7.5), 5 mM EDTA, 0.5 mM PMSF, 20 mg/L leupeptin, 4 mg/L E-64, 1 mg/L pepstatin A]. The membrane fractions were suspended in assay buffer to a protein concentration of 2 mg/mL, and after dispensing, preserved at −80° C. and used upon thawing each time when in use.
The MCHR1 ligand binding inhibitory activity of the test compound was determined as follows.
An MCHR1-expressing CHO cell membrane fraction (173 μL) diluted with an assay buffer was dispensed to a 96 well polypropylene plate (3363, Corning). DMSO solution (2 μL), 33 μM cold MCH(1-19) diluted with DMSO solution (2 μL), or a test compound solution diluted with DMSO solution to various concentrations (2 μL) was added, and lastly, [^125I]-MCH (4-19) diluted with assay buffer (hereinafter, sometimes to be referred to as “hot MCH”, 25 μL) was added to each well. The mixture was reacted with stirring at room temperature for 1 hr, and the plate was set on FilterMate Harvester (PerkinElmer). Using a treating glass filter plate (GF/C, PerkinElmer) with polyethyleneimine, which had been previously set, the plate was suction-filtered and washed three times with washing buffer (50 mM Tris-HCl buffer pH 7.5). The glass filter plate was dried, MicroScinti0 (PerkinElmer) was added at 25 μL/well, and the resulting radioactivity was measured by TopCount liquid scintillation counter (PerkinElmer). The binding inhibition rate of the test compound was calculated by the following formula. Binding inhibition (%)=100−(radioactivity upon addition of test compound and hot MCH−radioactivity upon addition of cold MCH and hot MCH solution)/(radioactivity upon addition of DMSO solution and hot MCH−radioactivity upon addition of cold MCH and hot MCH solution)×100
The binding inhibition rates (%) of test compounds (0.1 μM) as measured using human MCHR1-expressing CHO cell are shown in Table 2.
For `Cn1c(C2CC2C(C)(C)O)nc2ccc(-n3ccc(OCc4ccc(Cl)cc4)cc3=O)cc21` (stereo not drawn) [Example 154, 4-((4-Chlorobenzyl)oxy)-1-(2-((1R*,2S*)-2-(2-hydroxypropan-2-yl)cyclopropyl)-1-methyl-1H-benzimidazol-6-yl)pyridin-2(1H)-one], the “Binding inhibition rate % (0.1 μM)” value turned out to be 91%.

Consider `Cn1c(C2CC2C(C)(C)F)nc2ccc(-n3ccc(OCc4ccc(Cl)cc4)cc3=O)cc21` (stereo not drawn) [Example 209, 4-((4-Chlorobenzyl)oxy)-1-(2-((1R*,2S*)-2-(2-fluoropropan-2-yl)cyclopropyl)-1-methyl-1H-benzimidazol-6-yl)pyridin-2(1H)-one], for which the “Binding inhibition rate % (0.1 μM)” value came out at 89%.

Still in this experiment, the particulars now being: test compound 0.1 μM, human MCHR1-expressing CHO cell membrane fraction, read-out: Binding inhibition rate % (0.1 μM).
`CC1CC1c1nc2ccc(-n3ccc(OCc4ccc(Cl)cc4)cc3=O)cc2n1C` (stereo not shown) [Example 90, 4-((4-Chlorobenzyl)oxy)-1-(1-methyl-2-(2-methylcyclopropyl)-1H-benzimidazol-6-yl)pyridin-2(1H)-one]: the inhibition at 0.1 µM was 80%. Same read-out and setting: in the case of `Cn1c(C2CCC2)nc2ccc(-n3ccc(OCc4ccc(Cl)cc4)cc3=O)cc21` [Example 109, 4-((4-Chlorobenzyl)oxy)-1-(2-cyclobutyl-1-methyl-1H-benzimidazol-6-yl)pyridin-2(1H)-one] it was 50%; in that of `Cn1c(C2CC2)nc2ccc(-n3ccc(OCc4cc(F)cc(F)c4)cc3=O)cc21` [Example 119, 1-(2-Cyclopropyl-1-methyl-1H-benzimidazol-6-yl)-4-((3,5-difluorobenzyl)oxy)pyridin-2(1H)-one], 56%. The same measure, in the same setting: next, `CCCc1nc2ccc(-n3ccc(OCc4ccccc4)cc3=O)cc2n1C` [Example 126, 4-(Benzyloxy)-1-(1-methyl-2-propyl-1H-benzimidazol-6-yl)pyridin-2(1H)-one]: 65%; `Cc1c(C2CC2)nc2ccc(-n3ccc(OCc4ccc(Cl)s4)cc3=O)cn12` [Example 139, 4-((5-Chloro-2-thienyl)methoxy)-1-(2-cyclopropyl-3-methylimidazo[1,2-a]pyridin-6-yl)pyridin-2(1H)-one]: 88%; `Cc1ccc(COc2ccn(-c3ccc4nc(C5CC5)n(C)c4c3)c(=O)c2)cc1` [Example 142, 1-(2-Cyclopropyl-1-methyl-1H-benzimidazol-6-yl)-4-((4-methylbenzyl)oxy)pyridin-2(1H)-one]: 69%. Still for that read-out and setting: in the case of `Cc1ocnc1-c1nc2ccc(-n3ccc(OCc4ccc(F)cc4)cc3=O)cc2n1C` [Example 145, 4-((4-Fluorobenzyl)oxy)-1-(1-methyl-2-(5-methyl-1,3-oxazol-4-yl)-1H-benzimidazol-6-yl)pyridin-2(1H)-one] it was 52%; in that of `Cc1c(C2CC2)nc2ccc(-n3ccc(OCc4ccc(F)c(F)c4)cc3=O)cn12` [Example 146, 1-(2-Cyclopropyl-3-methylimidazo[1,2-a]pyridin-6-yl)-4-((3,4-difluorobenzyl)oxy)pyridin-2(1H)-one], 77%; in that of `Cc1c(C2CC2)nc2ccc(-n3ccc(OCc4ccc(Cl)c(F)c4)cc3=O)cn12` [Example 151, 4-((4-Chloro-3-fluorobenzyl)oxy)-1-(2-cyclopropyl-3-methylimidazo[1,2-a]pyridin-6-yl)pyridin-2(1H)-one], 73%. Turning to `Cn1c(C2CC2C(C)(C)O)nc2ccc(-n3ccc(OCc4ccc(Cl)cc4)cc3=O)cc21` (stereo not drawn) [Example 153, 4-((4-Chlorobenzyl)oxy)-1-(2-((1R*,2S*)-2-(2-hydroxypropan-2-yl)cyclopropyl)-1-methyl-1H-benzimidazol-6-yl)pyridin-2(1H)-one], the inhibition at 0.1 µM was 94%. Still for that read-out and setting: next, `Cc1nc2ccc(-n3ccc(OCc4ccc(F)cc4)cc3=O)cn2c1C` [Example 162, 1-(2,3-Dimethylimidazo[1,2-a]pyridin-6-yl)-4-((4-fluorobenzyl)oxy)pyridin-2(1H)-one]: 57%; `Cc1nc2ccc(-n3ccc(OCc4ccccc4)cc3=O)cn2c1C` [Example 163, 4-(Benzyloxy)-1-(2,3-dimethylimidazo[1,2-a]pyridin-6-yl)pyridin-2(1H)-one]: 49%. As for `Cc1nc2ccc(-n3ccc(OCc4csc(Cl)c4)cc3=O)cn2c1C` [Example 165, 4-((5-Chlorothiophen-3-yl)methoxy)-1-(2,3-dimethylimidazo[1,2-a]pyridin-6-yl)pyridin-2(1H)-one], the inhibition at 0.1 µM came out at 81%. The same measure, in the same setting: next, `Cc1nc2ccc(-n3ccc(OCc4ccc(Cl)s4)cc3=O)cn2c1C` [Example 166, 4-((5-Chlorothiophen-2-yl)methoxy)-1-(2,3-dimethylimidazo[1,2-a]pyridin-6-yl)pyridin-2(1H)-one]: 64%; `CCc1nc2ccc(-n3ccc(OCc4csc(Cl)c4)cc3=O)cn2c1C` [Example 172, 4-((5-Chlorothiophen-3-yl)methoxy)-1-(2-ethyl-3-methylimidazo[1,2-a]pyridin-6-yl)pyridin-2(1H)-one]: 72%; `Cc1c(C2CC2C#N)nc2ccc(-n3ccc(OCc4ccc(Cl)cc4)cc3=O)cn12` (stereo not shown) [Example 174, 2-(6-(4-((4-Chlorobenzyl)oxy)-2-oxopyridin-1(2H)-yl)-3-methylimidazo[1,2-a]pyridin-2-yl)cyclopropanecarbonitrile]: 45%.

Regarding `Cc1c(C2CC2)nc2ccc(-n3ccc(OCc4csc(C(F)F)c4)cc3=O)cn12` [Example 184, 1-(2-Cyclopropyl-3-methylimidazo[1,2-a]pyridin-6-yl)-4-((5-(difluoromethyl)-3-thienyl)methoxy)pyridin-2 (1H)-one], the inhibition at 0.1 µM came out at 82%. Same read-out and setting: next, `CCc1ncoc1-c1nc2ccc(-n3ccc(OCc4ccc(F)cc4)cc3=O)cc2n1C` [Example 201, 1-(2-(4-Ethyl-1,3-oxazol-5-yl)-1-methyl-1H-benzimidazol-6-yl)-4-((4-fluorobenzyl)oxy)pyridin-2(1H)-one]: 84%; `Cn1c(C2CC2C(C)(C)F)nc2ccc(-n3ccc(OCc4ccc(Cl)cc4)cc3=O)cc21` (stereo not drawn) [Example 207, 4-((4-Chlorobenzyl)oxy)-1-(2-((1R*,2S*)-2-(2-fluoropropan-2-yl)cyclopropyl)-1-methyl-1H-benzimidazol-6-yl)pyridin-2(1H)-one]: 85%. Regarding `CCC(=O)c1nc2ccc(-n3ccc(OCc4ccc(Cl)cc4)cc3=O)cc2n1C` [Example 208, 4-((4-Chlorobenzyl)oxy)-1-(1-methyl-2-propanoyl-1H-benzimidazol-6-yl)pyridin-2(1H)-one], the inhibition at 0.1 µM was determined as 39%. On the same count and under the same terms, in the case of `CCc1nc2ccc(-n3ccc(OCc4ccccc4)cc3=O)cc2n1C` [Example 210, 4-(Benzyloxy)-1-(2-ethyl-1-methyl-1H-benzimidazol-6-yl)pyridin-2(1H)-one] it was 51%; in that of `CCc1nc2ccc(-n3ccc(OCc4ccc(Cl)s4)cc3=O)cc2n1C` [Example 211, 4-((5-Chlorothiophen-2-yl)methoxy)-1-(2-ethyl-1-methyl-1H-benzimidazol-6-yl)pyridin-2(1H)-one], 76%. For the compound `Cc1cc(COc2ccn(-c3ccc4nc(C5CC5)n(C)c4c3)c(=O)c2)cs1` [Example 213, 1-(2-Cyclopropyl-1-methyl-1H-benzimidazol-6-yl)-4-((5-methyl-3-thienyl)methoxy)pyridin-2(1H)-one], the inhibition at 0.1 µM was found to be 79%.

For `Cn1c(C2CC2)nc2ccc(-n3ccc(OCc4csc(F)c4)cc3=O)cc21` [Example 216, 1-(2-Cyclopropyl-1-methyl-1H-benzimidazol-6-yl)-4-((5-fluoro-3-thienyl)methoxy)pyridin-2(1H)-one], the inhibition at 0.1 µM was found to be 88%. On the same count and under the same terms, in the case of `Cn1c(C2CC2)nc2ccc(-n3ccc(OCc4ccsc4F)cc3=O)cc21` [Example 217, 1-(2-Cyclopropyl-1-methyl-1H-benzimidazol-6-yl)-4-((2-fluoro-3-thienyl)methoxy)pyridin-2(1H)-one] it was 73%; in that of `Cn1c(C2CC2)nc2ccc(-n3ccc(OCc4ccsc4Cl)cc3=O)cc21` [Example 221, 4-((2-Chloro-3-thienyl)methoxy)-1-(2-cyclopropyl-1-methyl-1H-benzimidazol-6-yl)pyridin-2(1H)-one], 58%.
